Assays:
STING receptor [1] = biological target: T1, STING receptor (Homo sapiens, UniProt Q86WV6, G230A/H232R/R293Q/R71H); assay: THP-1 Dual assay, NF-κB pathway (SEAP reporter); assay type: cell-based; settings: 18 h incubation
T1 construct: host or cells: THP-1 Dual cells (human monocytic THP-1 with NF-kB-SEAP and IRF-Lucia reporters)
Text: (§1) The INVIVOGEN® THP-1 Dual™ assay (catalog code: thpd-nfis) was used to evaluate the listed compounds as agonist of the STING receptor. The THP-1 Dual™ cells are derived from the human monocytic cell line THP-1 by stable integration of two inducible reporter constructs. This assay enables simultaneous study of the two main signaling pathways for STING: (a) the NF-κB pathway, by monitoring the activity of secreted embryonic alkaline phosphatase (SEAP); and (b) the Interferon regulatory factor (IRF) pathway, by assessing the activity of a secreted luciferase (Lucia™).
(§2) The procedure as set forth by the manufacturer was followed, with the following modifications: (1) plates are incubated 18 h after addition of cell suspension, and (2) the optional differentiation step is not employed. Tables 1 and 2. Biological Activity

STING receptor [2] = biological target: T1, STING receptor; assay: THP-1 Dual assay, IRF pathway (secreted Lucia luciferase reporter; IRF3 activation); assay type: cell-based; settings: 18 h incubation
Text: as §1, §2

MT4-2D cells = assay: Mouse Ductal Pancreatic Cancer Assay (subcutaneous MT4-2D tumors, intra-tumoral injection); assay type: in vivo, C57BL/6J mice; settings: 5 ug intra-tumorally on day 15
Method: Mouse Ductal Pancreatic Cancer Assay
The procedure of Boj et a. […] 2.5×10^5 MT4-2D cells were injected subcutaneously on the right flank of male 6 week old C57BL/6J mice. 5 ug of the indicated STING agonist was injected intra-tumorally on day 15 in a volume of 50 ul.

[3] = day 0 post challenge (before dosing)
[4] = day 4 post challenge (before dosing)
[5] = day 6 post challenge (before dosing)
[6] = day 8 post challenge (before dosing)
[7] = day 10 post challenge (before dosing)
[8] = day 12 post challenge (before dosing)
[9] = day 14 post challenge (before dosing)
[10] = day 15 post challenge (day of dosing)

T1 sequence (Q86WV6 whole entry R71H/G230A/H232R/R293Q): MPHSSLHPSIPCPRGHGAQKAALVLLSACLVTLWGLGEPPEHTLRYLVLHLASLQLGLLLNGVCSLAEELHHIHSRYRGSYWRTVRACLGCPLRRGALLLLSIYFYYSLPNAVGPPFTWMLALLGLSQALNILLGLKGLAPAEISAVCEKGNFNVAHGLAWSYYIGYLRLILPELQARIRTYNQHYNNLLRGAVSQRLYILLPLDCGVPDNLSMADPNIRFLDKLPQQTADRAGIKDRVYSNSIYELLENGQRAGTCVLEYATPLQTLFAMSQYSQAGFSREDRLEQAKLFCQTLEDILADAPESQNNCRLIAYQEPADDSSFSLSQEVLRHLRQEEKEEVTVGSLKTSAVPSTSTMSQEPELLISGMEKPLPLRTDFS

Fold induction of NF-κB activation THP-1 Dual cells (STING receptor [1]; 5 mg/mL STING agonist) | Fold induction of IRF3 activation in THP-1 Dual cells (STING receptor [2]; 1 mg/mL STING agonist) | Fold induction of IRF3 activation in THP-1 Dual cells (STING receptor [2]; 5 mg/mL STING agonist) | Fold induction of NF-κB activation THP-1 Dual cells (STING receptor [1]; 0.1 mg/mL STING agonist) | Fold induction of NF-κB activation THP-1 Dual cells (STING receptor [1]; 0.5 mg/mL STING agonist) | Fold induction of NF-κB activation THP-1 Dual cells (STING receptor [1]; 1 mg/mL STING agonist) | Fold induction of NF-κB activation THP-1 Dual cells (STING receptor [1]; 10 mg/mL STING agonist) | Fold induction of IRF3 activation in THP-1 Dual cells (STING receptor [2]; 0.1 mg/mL STING agonist) | Fold induction of IRF3 activation in THP-1 Dual cells (STING receptor [2]; 0.5 mg/mL STING agonist) | Fold induction of IRF3 activation in THP-1 Dual cells (STING receptor [2]; 10 mg/mL STING agonist) | SMILES | Tumor Vol (MT4-2D cells; [3]) | Tumor Vol (MT4-2D cells; [4]) | Tumor Vol (MT4-2D cells; [5]) | Tumor Vol (MT4-2D cells; [6]) | Tumor Vol (MT4-2D cells; [7]) | Tumor Vol (MT4-2D cells; [8]) | Tumor Vol (MT4-2D cells; [9]) | Tumor Vol (MT4-2D cells; [10]) | Tumor Vol (MT4-2D cells; day 16 post challenge) | Tumor Vol (MT4-2D cells; day 22 post challenge) | further results
2.77 fold | 9.77 fold | 112.64 fold |  |  |  |  |  |  |  | Nc1ncnc2c1ccn2[C@@H]1O[C@@H]2COP(=O)(S)O[C@@H]3[C@H](O)[C@@H](CO[P@@](=O)(S)O[C@@H]2[C@H]1O)O[C@H]3n1cnc2c(N)ncnc21 (single isomer, unassigned) [Example 1a] |  |  |  |  |  |  |  |  |  |  | 
1.29 fold | 3.52 fold | 25.91 fold | 0.97 fold | 0.99 fold | 1.01 fold | 3.71 fold | 0.99 fold | 1.88 fold | 87.63 fold | Nc1ncnc2c1ccn2[C@@H]1O[C@@H]2COP(=O)(S)O[C@@H]3[C@H](O)[C@@H](CO[P@@](=O)(S)O[C@@H]2[C@H]1O)O[C@H]3n1cnc2c(N)ncnc21 (single isomer, unassigned) [Example 1b] |  |  |  |  |  |  |  |  |  |  | 
1.02 fold | 1.32 fold | 2.87 fold | 0.99 fold | 0.98 fold | 0.97 fold | 1.10 fold | 1.07 fold | 1.26 fold | 5.93 fold | Nc1nc2c(ncn2[C@@H]2O[C@@H]3COP(=O)(O)O[C@H]4[C@@H](O)[C@H](n5cnc6c(=O)[nH]c(N)nc65)O[C@@H]4COP(=O)(O)O[C@H]3[C@H]2O)c(=O)[nH]1 [3′,5′-c-di-GMP, cyclic di-GMP (guanosine 5′-monophosphate), reference compound] |  |  |  |  |  |  |  |  |  |  | 
 |  |  |  |  |  |  |  |  |  | Nc1ncnc2c1ncn2[C@@H]1O[C@@H]2COP(=O)(S)O[C@@H]3[C@H](O)[C@@H](CO[P@@](=O)(S)O[C@H]2[C@H]1F)O[C@H]3n1cnc2c(N)ncnc21 (stereo partly drawn) [Example 2a, (1R,6R,8R,9R,10R,12R,15R,17R,18R)-8,17-di(6-amino-9H-purin-9-yl)-9-fluoro-18-hydroxy-3,12-dimercapto-2,4,7,11,13,16-hexaoxa-3λ^5, 12λ^5-diphosphatricyclo-[13.2.1.0^6,10]octadecane-3,12-dione] | 0.0 mm^3 | 29.2 mm^3 | 64.3 mm^3 | 84.3 mm^3 | 103.3 mm^3 | 125.9 mm^3 | 113.8 mm^3 | 132.1 mm^3 | 134.0 mm^3 | 91.6 mm^3 | Tumor Vol (MT4-2D cells; day 17 post challenge): 122.7 mm^3; Tumor Vol (MT4-2D cells; day 18 post challenge): 82.8 mm^3; Tumor Vol (MT4-2D cells; day 20 post challenge): 72.8 mm^3; Tumor Vol (MT4-2D cells; day 25 post challenge): 124.0 mm^3; Tumor Vol (MT4-2D cells; day 27 post challenge): 142.0 mm^3; Tumor Vol (MT4-2D cells; day 29 post challenge): 163.1 mm^3; Tumor Vol (MT4-2D cells; day 32 post challenge): 217.7 mm^3
 |  |  |  |  |  |  |  |  |  | Nc1ncnc2c1ncn2[C@@H]1O[C@@H]2COP(=O)(S)O[C@@H]3[C@H](O)[C@@H](CO[P@@](=O)(S)O[C@H]2[C@H]1F)O[C@H]3n1cnc2c(N)ncnc21 (stereo partly drawn) [Example 2b, (1R,6R,8R,9R,10R,12R,15R,17R,18R)-8,17-di(6-amino-9H-purin-9-yl)-9-fluoro-18-hydroxy-3,12-dimercapto-2,4,7,11,13,16-hexaoxa-3λ^5, 12λ^5-diphosphatricyclo-[13.2.1.0^6,10]octadecane-3,12-dione] | 0.0 mm^3 | 28.4 mm^3 | 53.9 mm^3 | 66.5 mm^3 | 87.4 mm^3 | 98.3 mm^3 | 106.6 mm^3 | 114.7 mm^3 | 130.8 mm^3 | 64.9 mm^3 | Tumor Vol (MT4-2D cells; day 17 post challenge): 128.3 mm^3; Tumor Vol (MT4-2D cells; day 18 post challenge): 90.4 mm^3; Tumor Vol (MT4-2D cells; day 20 post challenge): 115.3 mm^3; Tumor Vol (MT4-2D cells; day 25 post challenge): 70.4 mm^3; Tumor Vol (MT4-2D cells; day 27 post challenge): 80.7 mm^3; Tumor Vol (MT4-2D cells; day 29 post challenge): 99.6 mm^3; Tumor Vol (MT4-2D cells; day 32 post challenge): 102.6 mm^3
1.08 fold | 1.56 fold | 5.05 fold | 0.98 fold | 0.99 fold | 1.00 fold | 1.14 fold | 1.38 fold | 1.48 fold | 6.70 fold | Nc1ncnc2c1ccn2[C@@H]1O[C@@H]2CO[P@@](=O)(S)O[C@@H]3[C@@H](O)[C@H](n4cnc5c(N)ncnc54)O[C@@H]3COP(=O)(S)O[C@@H]1[C@@H]2O (stereo partly drawn) [Example 3b, (1R,6R,8R,9R,10R,12R,15R,17R,18R)-17-(4-amino-7H-pyrrolo[2,3-d]pyrimidin-7-yl)-8-(6-amino-9H-purin-9-yl)-9,18-dihydroxy-3,12-dimercapto-2,4,7,11,13,16-hexaoxa-3λ^5, 12λ^5-diphosphatricyclo[13.2.1.0^6,10]octadecane-3,12-dione] |  |  |  |  |  |  |  |  |  |  | 
 |  |  |  |  |  |  |  |  |  | Nc1ncnc2c1ncn2[C@@H]1O[C@@H]2COP(O)(=S)O[C@@H]3C(O)[C@@H](COP(O)(=S)O[C@H]2[C@H]1O)O[C@H]3n1cnc2c(N)ncnc21 (stereo partly drawn) [ML-RR-CDA, dithio-[Rp,Sp]-cyclic-[A(2′,5′)p-A(3′,5′)p], reference compound] | 0.0 mm^3 | 19.0 mm^3 | 56.3 mm^3 | 81.9 mm^3 | 84.5 mm^3 | 107.3 mm^3 | 110.9 mm^3 | 125.6 mm^3 | 193.2 mm^3 | 147.2 mm^3 | Tumor Vol (MT4-2D cells; day 25 post challenge): 154.0 mm^3; Tumor Vol (MT4-2D cells; day 27 post challenge): 241.4 mm^3; Tumor Vol (MT4-2D cells; day 29 post challenge): 198.5 mm^3; Tumor Vol (MT4-2D cells; day 32 post challenge): 250.1 mm^3

— US12036231B2, “Cyclic dinucleotides as agonists of stimulator of interferon gene dependent signalling” (Board of Regents, The University of Texas System, priority 2017, dated 2024)
